From patent publication US20080009470A1, “Acremonic Acid Derivatives” (priority 2003, published 2008)
“And” between values parts separate entries of the source, which are not always exact repeats. Equal entries are not always repeated.

What was measured:
[1] = test system: methicillin-resistant S. aureus (MRSA) strains; test: MIC, Agar Dilution / Micro Dilution Test (NCCLS); format: cell-based, Staphylococcus aureus; details: e.g. in the form of its sodium salt
From the text: E.g., the compounds of the present invention show antimicrobial, e.g. antibacterial activity against gram positive bacteria and gram negative, such as Staphylococcus, e.g. S. aureus, MRSA (Methicillin Resistant S. aureus), MSSA (Methicillin Sensitive S. aureus), Enterococcus, e.g. E. faecalis, E. faecium, Moraxella, e.g. M. catarrhalis, in vitro in the Agar Dilution Test and/or Micro Dilution Test for bacteria according to National Committee for Clinical Laboratory Standards (NCCLS) 1993, • Document M7-A4, Vol. 20, No. 2, 2000: “Methods for dilution Antimicrobial Susceptibility Tests for Bacteria that Grow Aerobically”—Third Edition, Approved Standard”; and • Document M26-A, Vo. 19, No. 18, 1999: Methods for determining antibactericidal activity of antimicrobial agents, • Document M11-A3 for anaerobic bacteria, • in a concentration from about 0.1 to ca. 25.6 μg/ml, e.g. using strains including Staphylococcus aureus (ATCC 29213 and ATCC 29506); Enterococcus faecalis ATCC 29212; • and in vivo in the septicaemia mouse model, in accordance to the method description Nr. […]
The compound of example 1 is a preferred compound of the present invention. It has, for example been determined that the minimum inhibitory concentration, e.g. MIC90 (μg/ml), of the compound of Example 1, e.g. in the form of its sodium salt, against, for example S. aureus (MRSA) is of about 0.2.

[2] = test system: S. aureus B29 (clinical isolate, MRSA); test: septicaemia mouse model; format: in vivo; details: mice, survival on day 5, Probit analysis, e.g. sodium salt
From the text: (§1) E.g., the compounds of the present invention show antimicrobial, e.g. antibacterial activity against gram positive bacteria and gram negative, such as Staphylococcus, e.g. S. aureus, MRSA (Methicillin Resistant S. aureus), MSSA (Methicillin Sensitive S. aureus), Enterococcus, e.g. E. faecalis, E. faecium, Moraxella, e.g. M. catarrhalis, in vitro in the Agar Dilution Test and/or Micro Dilution Test for bacteria according to National Committee for Clinical Laboratory Standards (NCCLS) 1993, • Document M7-A4, Vol. 20, No. 2, 2000: “Methods for dilution Antimicrobial Susceptibility Tests for Bacteria that Grow Aerobically”—Third Edition, Approved Standard”; and • Document M26-A, Vo. 19, No. 18, 1999: Methods for determining antibactericidal activity of antimicrobial agents, • Document M11-A3 for anaerobic bacteria, • in a concentration from about 0.1 to ca. 25.6 μg/ml, e.g. using strains including Staphylococcus aureus (ATCC 29213 and ATCC 29506); Enterococcus faecalis ATCC 29212; • and in vivo in the septicaemia mouse model, in accordance to the method description Nr. 159 A-5, approved by Austrian Health Authorities (MA 58, no. 2968/95 of Oct. 12, 1995), e.g. when administered at dosages from 0.05 to 50 mg/kg body weight.
(§2) The ED50 values are calculated by Probit analysis of the administered dosages of compounds. Activity is determined by numbers of surviving animals per group of 8 or 6 mice, respectively, per dosage unit on day 5 after infection.

[3] = test system: Staphylococcus aureus (ATCC 49951, MSSA); test: septicaemia mouse model; format: in vivo; details: mice, treated orally 1 and 4 hours after infection; survival on day 5; Probit analysis; e.g. sodium salt; ranging from 5.54 to 13.34
From the text: as §1, §2

[4] = test system: Moraxella catarrhalis isolates; test: MIC, Agar Dilution / Micro Dilution Test (NCCLS); format: cell-based; details: n=2
From the text: as §1
(§3) Furthermore, the compound of example 1 is active against mupirocin-resistant staphylococci (n=26) with MICs below 0.5 μg/ml (range ≦0.125-0.5 μg/ml). Moraxella catarrhalis isolates (n=2) are inhibited at MICs of 0.2 and 0.4 μg/ml. The MICs for Enterococcus faecalis isolates (n=2) are 6.4 μg/ml and 12.8 μg/ml.

[5] = test system: methicillin-sensitive Staphylococcus aureus (MSSA) strains; test: MIC, Agar Dilution / Micro Dilution Test (NCCLS); format: cell-based; details: n=26, e.g. in the form of its sodium salt
From the text: as §1, §3

Enterococcus faecium = test: MIC, Agar Dilution / Micro Dilution Test (NCCLS); format: cell-based; details: n=1
From the text: as §1, §3

[6] = test system: mupirocin-resistant staphylococci; test: MIC, Agar Dilution / Micro Dilution Test (NCCLS); format: cell-based; details: n=26
From the text: as §1, §3

[7] = test system: Enterococcus faecalis isolates; test: MIC, Agar Dilution / Micro Dilution Test (NCCLS); format: cell-based; details: n=2
From the text: as §1, §3

“6-O-(2′-fluoroisobutyryl)-24, 25-dihydro-acremonic acid [Example 1]” was tested, and the MIC50 ([1]; MRSA strains, n=26) was 0.2 µg/mL, the MIC90 ([1]; S. aureus (MRSA)) was “about 0.2 μg/ml” and the ED50 ([2]; treated orally 1 and 4 hours after infection, ranging from 4.25 to 11.98) was “ca. 6.65 mg/kg body weight”. For the same substance, the ED50 ([2]; treated subcutaneously 1 and 4 hours after infection, ranging from 1.93 to 5.85) was “ca. 3.20 mg/kg body weight”, the ED50 [3] was “ca. 8.55 mg/kg body weight” and the MICs [4] was 0.2 µg/mL and 0.4 µg/mL. It also gave an MIC90 [5] of 0.25 µg/mL, an MIC (Enterococcus faecium) of 6.4 µg/mL and an MIC range [6] of 0.125 to 0.5 µg/mL. For the same substance, the MICs [6] was “below 0.5 μg/ml” and the MICs [7] was 6.4 µg/mL and 12.8 µg/mL.
